Laboratory results from PubChem BioAssay AID344 (DTP/NCI, 2004).
Values joined by “and” are separate entries in the source; they are usually repeats but may differ in a detail not shown here. Equal values may be shown once. Toxic doses and inconclusive results are not listed. *1 amine or outer side, *2 acyl side, *3 side chain or, on linkers, in order; H or OH if unused. Where a SMILES comes first, the peptide text is derived from it. Bridges are numbered along the chain shown (N, C = ends). Roman numbers before positions name the chains, in order. [ ]: non-standard residue; d: D form. Actinocin(9to1) = Cc1c2oc3c(C)ccc(C(=O)[*:1])c3nc-2c(C(=O)[*:2])c(N)c1=O; aThr = C[C@H](O)[C@H](N)C(=O)O; NMeV = CN[C@H](C(=O)O)C(C)C; Sar = CNCC(=O)O

System: mice, LPC-1 plasma cell tumor ip, median survival T/C
Test: NCI In Vivo Anticancer Drug Screen. Data for tumor model Lieberman Plasma Cell No. 1 (LPC-1) (intraperitoneal) in unknown mice
Settings: endpoint: median survival time, higher = longer survival
Procedure: The antitumor activity of compounds was measured in mice bearing transplantable tumors. Survival or tumor size were measured and the results are expressed as the measurement made in the treated group (T) divided by the measurement made in the vehicle treated control group (C). The tumor model used in this assay is Lieberman Plasma Cell No. 1 (LPC-1) (intraperitoneal) in unknown mice

[1] = dose: 500.0 mg/kg/injection, schedule: Q01DX028 (sc), vehicle: carboxymethylcellulose (CMC)
[2] = dose: 180.0 mg/kg/injection, schedule: Q01DX028 (sc), vehicle: carboxymethylcellulose (CMC)
[3] = dose: 50.0 mg/kg/injection, schedule: Q01DX028 (sc), vehicle: water
[4] = dose: 200.0 mg/kg/injection, schedule: Q01DX028 (sc), vehicle: water

COc1cc2cccnc2c2[nH]ccc(=O)c12
T/C (dose: 50.0 mg/kg/injection, schedule: Q01DX009 (sc), vehicle: saline): 100 % of control
T/C (dose: 100.0 mg/kg/injection, schedule: Q01DX009 (sc), vehicle: saline): 92 % of control
T/C (dose: 200.0 mg/kg/injection, schedule: Q01DX009 (sc), vehicle: saline): 102 % of control
T/C (dose: 400.0 mg/kg/injection, schedule: Q01DX009 (sc), vehicle: saline): 104 % of control

CO[C@H](C(=O)[C@@H](O)[C@@H](C)O)[C@@H]1Cc2cc3cc(OC4CC(OC5CC(O)C(O)C(C)O5)C(O)C(C)O4)c(C)c(O)c3c(O)c2C(=O)[C@H]1OC1CC(OC2CC(OC3CC(C)(O)C(O)C(C)O3)C(O)C(C)O2)C(O)C(C)O1 (stereo partly specified)
T/C (dose: 0.2 mg/kg/injection, schedule: Q01DX028 (sc), vehicle: saline): 100 % of control
T/C (dose: 0.4 mg/kg/injection, schedule: Q01DX028 (sc), vehicle: saline): 97 % of control

CCOc1ccccc1C(=O)Nc1ccc(Br)cc1
T/C (dose: 180.0 mg/kg/injection, schedule: Q01DX Z (sc), vehicle: carboxymethylcellulose (CMC)): 97 % of control
T/C (dose: 266.0 mg/kg/injection, schedule: Q01DX Z (sc), vehicle: carboxymethylcellulose (CMC)): 105 % of control
T/C (dose: 400.0 mg/kg/injection, schedule: Q01DX Z (sc), vehicle: carboxymethylcellulose (CMC)): 100 % of control
T/C (dose: 600.0 mg/kg/injection, schedule: Q01DX Z (sc), vehicle: carboxymethylcellulose (CMC)): 94 % of control

Cc1c2oc3c(C)ccc(C(=O)N[C@@H]4C(=O)N[C@H](C(C)C)C(=O)N5CCC[C@H]5C(=O)N(C)CC(=O)N(C)[C@@H](C(C)C)C(=O)O[C@H]4C)c3nc-2c(C(=O)N[C@@H]2C(=O)N[C@H](C(C)C)C(=O)N3CCC[C@H]3C(=O)N(C)CC(=O)N(C)[C@@H](C(C)C)C(=O)O[C@H]2C)c(N)c1=O (I: [aThr][dV]P[Sar][NMeV] / II: [aThr][dV]P[Sar][NMeV]; ester I:1-I:C, II:1-II:C; linker I:N-II:N via Actinocin(9to1))
T/C (dose: 0.03 mg/kg/injection, schedule: Q01DX028 (sc), vehicle: saline): 95 % of control
T/C (dose: 0.06 mg/kg/injection, schedule: Q01DX028 (sc), vehicle: saline): 100 % of control
T/C (dose: 0.13 mg/kg/injection, schedule: Q01DX028 (sc), vehicle: saline): 95 % of control
T/C (dose: 0.25 mg/kg/injection, schedule: Q01DX028 (sc), vehicle: saline): 90 % of control

O=C(O)c1[nH]c(=O)[nH]c(=O)c1F
T/C (dose: 1.8 mg/kg/injection, schedule: Q01DX028 (sc), vehicle: saline): 180 % of control
T/C (dose: 3.0 mg/kg/injection, schedule: Q01DX028 (sc), vehicle: saline): 123 % of control
T/C (dose: 5.0 mg/kg/injection, schedule: Q01DX028 (sc), vehicle: saline): 119 % of control
T/C (dose: 8.4 mg/kg/injection, schedule: Q01DX028 (sc), vehicle: saline): 97 % of control and 114 % of control
T/C (dose: 14.0 mg/kg/injection, schedule: Q01DX028 (sc), vehicle: saline): 93 % of control and 104 % of control
T/C (dose: 23.0 mg/kg/injection, schedule: Q01DX028 (sc), vehicle: saline): 95 % of control and 102 % of control
T/C (dose: 39.0 mg/kg/injection, schedule: Q01DX028 (sc), vehicle: saline): 93 % of control
T/C (dose: 65.0 mg/kg/injection, schedule: Q01DX028 (sc), vehicle: saline): 88 % of control

COc1cc2oc(=O)ccc2cc1C(=O)CC(C)C
T/C (dose: 125.0 mg/kg/injection, schedule: Q01DX028 (sc), vehicle: carboxymethylcellulose (CMC)): 102 % of control
T/C (dose: 250.0 mg/kg/injection, schedule: Q01DX028 (sc), vehicle: carboxymethylcellulose (CMC)): 100 % of control
T/C [1]: 100 % of control

O=C(O)CCCc1ccc(N(CCCl)CCCl)cc1
T/C (dose: 1.0 mg/kg/injection, schedule: Q01DX007 (sc), vehicle: saline): 93 % of control
T/C (dose: 2.0 mg/kg/injection, schedule: Q01DX007 (sc), vehicle: saline): 109 % of control
T/C (dose: 3.0 mg/kg/injection, schedule: Q01DX028 (sc), vehicle: methylcellulose (MC)): 95 % of control
T/C (dose: 4.0 mg/kg/injection, schedule: Q01DX007 (sc), vehicle: saline): 118 % of control
T/C (dose: 5.0 mg/kg/injection, schedule: Q01DX028 (sc), vehicle: methylcellulose (MC)): 97 % of control
T/C (dose: 8.4 mg/kg/injection, schedule: Q01DX028 (sc), vehicle: methylcellulose (MC)): 100 % of control
T/C (dose: 14.0 mg/kg/injection, schedule: Q01DX028 (sc), vehicle: methylcellulose (MC)): 113 % of control
T/C (dose: 16.0 mg/kg/injection, schedule: Q01DX007 (sc), vehicle: saline): 112 % of control

CS(=O)(=O)OCCN(CCOS(C)(=O)=O)c1ccc(C(=O)O)cc1
T/C (dose: 20.0 mg/kg/injection, schedule: Q01DX028 (sc), vehicle: carboxymethylcellulose (CMC)): 205 % of control
T/C (dose: 40.0 mg/kg/injection, schedule: Q01DX028 (sc), vehicle: carboxymethylcellulose (CMC)): 350 % of control
T/C (dose: 55.0 mg/kg/injection, schedule: Q01DX028 (sc), vehicle: carboxymethylcellulose (CMC)): 255 % of control
T/C (dose: 80.0 mg/kg/injection, schedule: Q01DX028 (sc), vehicle: carboxymethylcellulose (CMC)): 197 % of control
T/C [2]: 105 % of control
T/C (dose: 270.0 mg/kg/injection, schedule: Q01DX028 (sc), vehicle: carboxymethylcellulose (CMC)): 89 % of control

C/C(=N/N=C(N)N)c1ccc(NC(=O)Nc2ccc(/C(C)=N/N=C(N)N)cc2)cc1
T/C (dose: 53.0 mg/kg/injection, schedule: Q01DX028 (sc), vehicle: carboxymethylcellulose (CMC)): 97 % of control
T/C (dose: 88.0 mg/kg/injection, schedule: Q01DX028 (sc), vehicle: carboxymethylcellulose (CMC)): 92 % of control
T/C (dose: 147.0 mg/kg/injection, schedule: Q01DX028 (sc), vehicle: carboxymethylcellulose (CMC)): 94 % of control
T/C (dose: 245.0 mg/kg/injection, schedule: Q01DX028 (sc), vehicle: carboxymethylcellulose (CMC)): 97 % of control

CCN(CC)c1ccc2cc3ccc(=[N+](CC)CC)cc-3oc2c1
T/C (dose: 1.0 mg/kg/injection, schedule: Q01DX028 (sc), vehicle: methylcellulose (MC)): 97 % of control
T/C (dose: 2.0 mg/kg/injection, schedule: Q01DX028 (sc), vehicle: methylcellulose (MC)): 93 % of control
T/C (dose: 4.0 mg/kg/injection, schedule: Q01DX028 (sc), vehicle: methylcellulose (MC)): 89 % of control
T/C (dose: 8.0 mg/kg/injection, schedule: Q01DX028 (sc), vehicle: methylcellulose (MC)): 87 % of control

Cn1cnc([N+](=O)[O-])c1Sc1ncnc2nc[nH]c12
T/C (dose: 25.0 mg/kg/injection, schedule: Q01DX028 (sc), vehicle: carboxymethylcellulose (CMC)): 102 % of control
T/C (dose: 50.0 mg/kg/injection, schedule: Q01DX028 (sc), vehicle: carboxymethylcellulose (CMC)): 111 % of control and 114 % of control
T/C (dose: 75.0 mg/kg/injection, schedule: Q01DX028 (sc), vehicle: carboxymethylcellulose (CMC)): 108 % of control
T/C (dose: 100.0 mg/kg/injection, schedule: Q01DX028 (sc), vehicle: carboxymethylcellulose (CMC)): 108 % of control

N=[N+]=CC(=O)OCC(N)C(=O)O (stereo unspecified)
T/C (dose: 1.8 mg/kg/injection, schedule: Q01DX028 (sc), vehicle: water): 89 % of control
T/C (dose: 3.0 mg/kg/injection, schedule: Q01DX028 (sc), vehicle: water): 102 % of control
T/C (dose: 14.0 mg/kg/injection, schedule: Q01DX028 (sc), vehicle: water): 97 % of control

O=c1[nH]c(=O)n(C2CC(O)C(CO)O2)cc1C(F)(F)F (stereo unspecified)
T/C [3]: 102 % of control
T/C (dose: 100.0 mg/kg/injection, schedule: Q01DX028 (sc), vehicle: water): 100 % of control
T/C [4]: 100 % of control
T/C (dose: 400.0 mg/kg/injection, schedule: Q01DX028 (sc), vehicle: water): 97 % of control

Cc1cc(N(CCCl)CCCl)ccc1C=Nc1ccccc1-c1ccccc1
T/C (dose: 23.0 mg/kg/injection, schedule: Q01DX015 (sc), vehicle: carboxymethylcellulose (CMC)): 92 % of control
T/C (dose: 180.0 mg/kg/injection, schedule: Q01DX015 (sc), vehicle: carboxymethylcellulose (CMC)): 102 % of control

C[C@]12C=CC(=O)C=C1CC[C@@H]1[C@@H]2C(=O)C[C@@]2(C)[C@H]1CC[C@]2(O)C(=O)CO
T/C (dose: 16.0 mg/kg/injection, schedule: Q01DX028 (sc), vehicle: water): 86 % of control
T/C (dose: 32.0 mg/kg/injection, schedule: Q01DX028 (sc), vehicle: water): 86 % of control
T/C [3]: 105 % of control
T/C (dose: 128.0 mg/kg/injection, schedule: Q01DX028 (sc), vehicle: water): 91 % of control
T/C [4]: 92 % of control

O=CN(O)CC(=O)O
T/C (dose: 65.0 mg/kg/injection, schedule: Q01DX028 (sc), vehicle: carboxymethylcellulose (CMC)): 93 % of control
T/C (dose: 108.0 mg/kg/injection, schedule: Q01DX028 (sc), vehicle: carboxymethylcellulose (CMC)): 90 % of control
T/C [2]: 90 % of control
T/C (dose: 300.0 mg/kg/injection, schedule: Q01DX028 (sc), vehicle: carboxymethylcellulose (CMC)): 93 % of control
T/C [1]: 95 % of control
T/C (dose: 833.0 mg/kg/injection, schedule: Q01DX028 (sc), vehicle: carboxymethylcellulose (CMC)): 95 % of control
